Measurements: US20240317714A1, “3-[(1H-PYRAZOL-R-YL)OXY]PYRAZIN-2-AMINE COMPOUNDS AS HPK1 INHIBITOR AND USE THEREOF” (BeiGene, Ltd., priority 2020, published 2024)

Assays:
[1] = target: HPK1 kinase (aal-346. Life Technologies) (Homo sapiens (Human), UniProt Q92918); experiment: HPK Kinase Activity Assay at 1 mM ATP (TR-FRET); assay type: biochemical; details: HPK1 kinase 40 nM, 0.5 μM STK1 substrate, read-out: Enzymatic activity IC50
[2] = test system: pSLP76(S376) level in Jurkat cell line; experiment: Cellular pSLP76(S376) HTRF Assay; assay type: cell-based; details: Homo sapiens, Jurkat, Jurkat cells, 2 h compound treatment, stimulated with 0.05 μg/mL anti-human CD3 (OKT3) for 30 min

Chain of HPK1 kinase (aal-346. Life Technologies) (Q92918 1-346): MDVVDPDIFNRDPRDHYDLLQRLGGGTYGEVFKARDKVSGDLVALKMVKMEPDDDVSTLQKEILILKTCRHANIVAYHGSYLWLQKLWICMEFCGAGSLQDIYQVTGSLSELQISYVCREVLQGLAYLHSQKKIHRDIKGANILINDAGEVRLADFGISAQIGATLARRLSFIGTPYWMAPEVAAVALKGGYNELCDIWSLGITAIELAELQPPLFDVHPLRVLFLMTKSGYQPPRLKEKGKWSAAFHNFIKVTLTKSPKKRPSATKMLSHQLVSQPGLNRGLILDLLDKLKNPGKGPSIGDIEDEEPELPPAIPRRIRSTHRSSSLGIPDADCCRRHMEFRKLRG

| Structure (SMILES) | IC50 [1] [nM] | IC50 [2] [nM] |
| --- | --- | --- |
| Cc1cc(-c2cnc(N)c(Oc3cnn(C4CCN(C)CC4)c3)n2)cc(C)c1C(=O)NCCN1CCCC1 [Example A4, 4-(5-amino-6-((1-(1-methylpiperidin-4-yl)-1H-pyrazol-4-yl)oxy)pyrazin-2-yl)-2,6-dimethyl-N-(2-(pyrrolidin-1-yl)ethyl)benzamide] | 25 | 91 |
| Cc1cc(-c2cnc(N)c(Oc3cnn(C4CCN(C)CC4)c3)n2)cc([C@]2(O)CCOC2)c1N1CCOCC1 [Example A97B, (R)-3-(5-(5-amino-6-((1-(1-methylpiperidin-4-yl)-1H-pyrazol-4-yl)oxy)pyrazin-2-yl)-3-methyl-2-morpholinophenyl)tetrahydrofuran-3-ol] | 30 | 154 |
| CNS(=O)(=O)c1cc(-c2cnc(N)c(Oc3cnn(C4CCN(C)CC4)c3)n2)cc(F)c1C [Example A18, 5-(5-amino-6-((1-(1-methylpiperidin-4-yl)-1H-pyrazol-4-yl)oxy)pyrazin-2-yl)-3-fluoro-N,2-dimethylbenzenesulfonamide] | 100 | 47 |
| Cc1cc(-c2cnc(N)c(Oc3cnn(C4CCN(C)CC4)c3)n2)ccc1CNS(C)(=O)=O [Example A46, N-(4-(5-amino-6-((1-(1-methylpiperidin-4-yl)-1H-pyrazol-4-yl)oxy)pyrazin-2-yl)-2-methylbenzyl)methanesulfonamide] | 51 | 98 |
| Cc1cc(-c2cnc(N)c(Oc3cnn(C4CCN(C)CC4)c3)n2)cc(C)c1CNc1ccn(C)n1 [Example A56, 5-(3,5-dimethyl-4-(((1-methyl-1H-pyrazol-3-yl)amino)methyl)phenyl)-3-((1-(1-methylpiperidin-4-yl)-1H-pyrazol-4-yl)oxy)pyrazin-2-amine] | 53 | 85 |
| Cc1cc(-c2cnc(N)c(Oc3cnn(C4CCN(C)CC4)c3)n2)cc(S(=O)(=O)NCCN2CCCCC2)c1 [Example A9, 3-(5-amino-6-((1-(1-methylpiperidin-4-yl)-1H-pyrazol-4-yl)oxy)pyrazin-2-yl)-5-methyl-N-(2-(piperidin-1-yl)ethyl)benzenesulfonamide] | 46 | 99 |
| CCN1CCC(n2cc(Oc3nc(-c4cc(C)cc(S(=O)(=O)NC)c4)cnc3N)cn2)CC1 [Example A27, 3-(5-amino-6-((1-(1-ethylpiperidin-4-yl)-1H-pyrazol-4-yl)oxy)pyrazin-2-yl)-N,5-dimethylbenzenesulfonamide] | 57 | 81 |
| Cc1cc(-c2cnc(N)c(Oc3cnn(C4CCN(C)CC4)c3)n2)cc(C)c1C(=O)NCCN(C)C [Example A1, 4-(5-amino-6-((1-(1-methylpiperidin-4-yl)-1H-pyrazol-4-yl)oxy)pyrazin-2-yl)-N-(2-(dimethylamino)ethyl)-2,6-dimethylbenzamide] | 47 | 93 |
| Cc1cc(-c2cnc(N)c(Oc3cnn(C4CCN(C)CC4)c3)n2)cc(C)c1CNS(=O)(=O)N(C)C [Example A62, 5-(4-[[(dimethylsulfamoyl)amino]methyl]-3,5-dimethylphenyl)-3-[[1-(1-methylpiperidin-4-yl)pyrazol-4-yl]oxy]pyrazin-2-amine] | 48 | 79 |
| CNS(=O)(=O)c1cc(-c2cnc(N)c(Oc3cnn(C4CCN(C)CC4)c3)n2)cc(N2CCOCC2)c1 [Example A42, 3-(5-amino-6-((1-(1-methylpiperidin-4-yl)-1H-pyrazol-4-yl)oxy)pyrazin-2-yl)-N-methyl-5-morpholinobenzenesulfonamide] | 19 | 82 |
| CNS(=O)(=O)c1cc(OC)cc(-c2cnc(N)c(Oc3cnn(C4CCN(C)CC4)c3)n2)c1 [Example A7, 3-(5-amino-6-((1-(1-methylpiperidin-4-yl)-1H-pyrazol-4-yl)oxy)pyrazin-2-yl)-5-methoxy-N-methylbenzenesulfonamide] | 20 | 62 |
| Cc1cc(-c2cnc(N)c(Oc3cnn(C4CCN(C)CC4)c3)n2)cc([Si](C)(C)O)c1 [Example A50, (3-(5-amino-6-((1-(1-methylpiperidin-4-yl)-1H-pyrazol-4-yl)oxy)pyrazin-2-yl)-5-methylphenyl)dimethylsilanol] | 18 | 95 |
| Cc1cc(-c2cnc(N)c(Oc3cnn(C4CCN(C)CC4)c3)n2)cc(C2(O)COC2)c1C1=CCOCC1 [Example A86, 3-(5-(5-amino-6-((1-(1-methylpiperidin-4-yl)-1H-pyrazol-4-yl)oxy)pyrazin-2-yl)-2-(3,6-dihydro-2H-pyran-4-yl)-3-methylphenyl)oxetan-3-ol] | 40 | 130 |
| Cc1cc(-c2cnc(N)c(Oc3cnn(C4CCN(C)CC4)c3)n2)cc(C2(O)COC2)c1C1OCCO1 [Example A87, 3-(5-(5-amino-6-((1-(1-methylpiperidin-4-yl)-1H-pyrazol-4-yl)oxy)pyrazin-2-yl)-2-(1,3-dioxolan-2-yl)-3-methylphenyl)oxetan-3-ol] | 56 | 89 |
| CNC(=O)c1c(C)cc(-c2cnc(N)c(Oc3cnn(C4CCN(C)CC4)c3)n2)cc1C [Example A3, 4-(5-amino-6-(1-(1-methylpiperidin-4-yl)-1H-pyrazol-4-yloxy)pyrazin-2-yl)-N,2,6-trimethylbenzamide] | 110 | 150 |
| Cc1cc(-c2cnc(N)c(Oc3cnn(C4CCN(C)CC4)c3)n2)cc(C)c1C1COCC(=O)N1 (stereo not shown) [Example A35, 5-(4-(5-amino-6-((1-(1-methylpiperidin-4-yl)-1H-pyrazol-4-yl)oxy)pyrazin-2-yl)-2,6-dimethylphenyl)morpholin-3-one] | 47 | 123 |
| Cc1cc(-c2cnc(N)c(Oc3cnn(C4CCN(C)CC4)c3)n2)cc(C2(O)CCCOC2)c1 (stereo not shown) [Example A88, 3-(3-(5-amino-6-((1-(1-methylpiperidin-4-yl)-1H-pyrazol-4-yl)oxy)pyrazin-2-yl)-5-methylphenyl)tetrahydro-2H-pyran-3-ol] | 34 | 85 |
| Cc1cc(-c2cnc(N)c(Oc3cnn(C4CCN(C)CC4)c3)n2)cc(C2(NS(=O)(=O)c3ccccc3)CC2)c1 [Example A20, N-(1-(3-(5-amino-6-((1-(1-methylpiperidin-4-yl)-1H-pyrazol-4-yl)oxy)pyrazin-2-yl)-5-methylphenyl)cyclopropyl)benzenesulfonamide] | 70 | 97 |

The remaining lines, values ahead:

| IC50 [1] [nM] | IC50 [2] [nM] | Structure (SMILES) |
| --- | --- | --- |
| 9.2 | 73 | CN1CCC(n2cc(Oc3nc(-c4cc(N5CCCOCC5)cc(C5(O)CCOC5)c4)cnc3N)cn2)CC1 (stereo not shown) [Example A98, 3-(3-(5-amino-6-((1-(1-methylpiperidin-4-yl)-1H-pyrazol-4-yl)oxy)pyrazin-2-yl)-5-(1,4-oxazepan-4-yl)phenyl)tetrahydrofuran-3-ol] |
| 5.8 | 62 | COC[C@@H]1COCCN1c1cc(-c2cnc(N)c(Oc3cnn(C4CCN(C)CC4)c3)n2)cc(C2(O)COC2)c1 [Example A76, (R)-3-(3-(5-amino-6-((1-(1-methylpiperidin-4-yl)-1H-pyrazol-4-yl)oxy)pyrazin-2-yl)-5-(3-(methoxymethyl)morpholino)phenyl)oxetan-3-ol] |
| 18 | 80 | CNS(=O)(=O)c1cc(OC(C)C)cc(-c2cnc(N)c(Oc3cnn(C4CCN(C)CC4)c3)n2)c1 [Example A16, 3-(5-amino-6-((1-(1-methylpiperidin-4-yl)-1H-pyrazol-4-yl)oxy)pyrazin-2-yl)-5-isopropoxy-N-methylbenzenesulfonamide; formic acid] |
| 14 | 38 | CNc1cc(-c2cnc(N)c(Oc3cnn(C4CCN(C)CC4)c3)n2)cc(S(=O)(=O)NC)c1 [Example A22, 3-(5-amino-6-((1-(1-methylpiperidin-4-yl)-1H-pyrazol-4-yl)oxy)pyrazin-2-yl)-N-methyl-5-(methylamino)benzenesulfonamide] |
| 10 | 44 | Cc1cc(-c2cnc(N)c(Oc3cnn(C4CCN(C)CC4)c3)n2)cc([C@@H]2CCC(=O)N2)c1 [Example A61B, (S)-5-(3-(5-amino-6-((1-(1-methylpiperidin-4-yl)-1H-pyrazol-4-yl)oxy)pyrazin-2-yl)-5-methylphenyl)pyrrolidin-2-one] |
| 3.7 | 28 | CN1CCC(n2cc(Oc3nc(-c4cc(N5CCC[C@H]5CO)cc(C5(O)COC5)c4)cnc3N)cn2)CC1 [Example A85, (S)-3-(3-(5-amino-6-((1-(1-methylpiperidin-4-yl)-1H-pyrazol-4-yl)oxy)pyrazin-2-yl)-5-(2-(hydroxymethyl)pyrrolidin-1-yl)phenyl)oxetan-3-ol] |
| 9 | 61 | Cc1cc(-c2cnc(N)c(Oc3cnn(C4CCN(C)CC4)c3)n2)cc(C)c1CNC(=O)c1ccccc1 [Example A44, N-(4-(5-amino-6-((1-(1-methylpiperidin-4-yl)-1H-pyrazol-4-yl)oxy)pyrazin-2-yl)-2,6-dimethylbenzyl)benzamide] |
| 14 | 34 | CNS(=O)(=O)c1cc(C)cc(-c2cnc(N)c(Oc3cnn(C4CCN(C)CC4)c3)n2)c1 [Example A2, 3-(5-amino-6-((1-(1-methylpiperidin-4-yl)-1H-pyrazol-4-yl)oxy)pyrazin-2-yl)-N,5-dimethylbenzenesulfonamide] |
| 11 | 199 | CN1CCC(n2cc(Oc3nc(-c4cc(N5CCCC5=O)cc(C5(O)COC5)c4)cnc3N)cn2)CC1 [Example A91, 1-(3-(5-amino-6-((1-(1-methylpiperidin-4-yl)-1H-pyrazol-4-yl)oxy)pyrazin-2-yl)-5-(3-hydroxyoxetan-3-yl)phenyl)pyrrolidin-2-one] |
| 7.1 | 100 | C[C@@H]1COCCN1c1cc(-c2cnc(N)c(Oc3cnn(C4CCN(C)CC4)c3)n2)cc(C2(O)CCCOC2)c1 (single isomer, unassigned) [Example A90B] |
| 18 | 84 | Cc1cc(-c2cnc(N)c(Oc3cnn(C4CCN(C)CC4)c3)n2)cc(C2(O)CCCC2)c1 [Example A65, 1-(3-(5-amino-6-((1-(1-methylpiperidin-4-yl)-1H-pyrazol-4-yl)oxy)pyrazin-2-yl)-5-methylphenyl)cyclopentan-1-ol] |
